From patent US20220315578A1, “BRD9 BIFUNCTIONAL DEGRADERS AND THEIR METHODS OF USE” (NOVARTIS AG, priority 2019, published 2022)

Target: T1, BRD9-GFP (Homo sapiens, UniProt Q9H8M2)
T1 construct: CHYSEL (2A cis-acting hydrolase element) remnant after GFP; mCherry is split off as a separate protein (C); expressed in transfected cells; host or cells: HEK293A cells (Invitrogen R70507), lentiviral transduction with pLenti6-BRD9-GFP-CHYSEL-mCherry, blasticidin selection
T1 sequence (Q9H8M2 1-597): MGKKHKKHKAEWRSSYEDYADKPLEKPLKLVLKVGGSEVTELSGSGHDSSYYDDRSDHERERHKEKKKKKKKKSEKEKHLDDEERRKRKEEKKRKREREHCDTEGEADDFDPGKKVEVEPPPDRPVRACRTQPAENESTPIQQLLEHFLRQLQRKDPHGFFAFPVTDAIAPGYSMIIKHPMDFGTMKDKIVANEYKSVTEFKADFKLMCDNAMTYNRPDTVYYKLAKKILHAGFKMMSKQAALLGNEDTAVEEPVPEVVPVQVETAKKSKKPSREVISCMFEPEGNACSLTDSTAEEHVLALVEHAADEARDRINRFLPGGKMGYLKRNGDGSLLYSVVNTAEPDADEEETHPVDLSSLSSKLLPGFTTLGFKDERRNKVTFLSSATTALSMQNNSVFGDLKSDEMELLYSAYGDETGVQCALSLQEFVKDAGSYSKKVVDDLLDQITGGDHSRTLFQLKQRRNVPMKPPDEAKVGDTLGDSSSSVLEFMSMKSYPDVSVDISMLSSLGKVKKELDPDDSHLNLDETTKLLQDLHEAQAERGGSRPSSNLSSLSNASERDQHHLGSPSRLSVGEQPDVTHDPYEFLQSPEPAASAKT
Experiment: BRD9-GFP protein abundance flow cytometry assay in HEK293A cells
Assay type: cell-based
Details: HEK293A-BRD9-GFP-CHYSEL-mCherry cells; for BRD9 Deg Amax %: 24 h, % protein remaining at the concentration at which maximum degradation is seen; for DC50: 24 h at 37° C., 10-point 1:3 dilution, concentration at which 50% maximal degradation was observed
Procedure, shortened: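 HEK293A cells stably express bicistronic BRD9-GFP-CHYSEL-mCherry and received 24 h treatment at 37° C with a 10-point, 3-fold dilution series from […], in 0.1% DMSO and duplicate. Median GFP/mCherry ratio of 5,000 single cells by flow cytometry, normalized to mCherry-only cells (0%) and DMSO (100%), gave DC50 and Amax (% protein remaining).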

Structure (SMILES) | BRD9 Deg Amax % | DC50
CCCn1cc(-c2cc(F)c(CCN3CCC(OC4CCN(C(=O)c5ccc(OC)c(N6CCC(=O)NC6=O)c5)CC4)CC3)c(F)c2)c(C)c(C)c1=O [Compound E12, 1-(5-(4-((1-(4-(4,5-dimethyl-6-oxo-1-propyl-1,6-dihydropyridin-3-yl)-2,6-difluorophenethyl)piperidin-4-yl)oxy)piperidine-1-carbonyl)-2 methoxyphenyl)dihydropyrimidine-2,4(1H,3H)-dione] | 33.47% | 30 nM
CCCCn1cc(-c2ccc(CN3CCC(OC4CCN(C(=O)c5ccc(OC)c(N6CCC(=O)NC6=O)c5)CC4)CC3)cc2)c2ccncc2c1=O [Compound E13, 1-(5-(4-((1-(4-(2-butyl-1-oxo-1,2-dihydro-2,7-naphthyridin-4-yl)benzyl)piperidin-4-yl)oxy)piperidine-1-carbonyl)-2-meth-oxyphenyl)dihydro-pyrimidine-2,4(1H,3H)-dione] | 13.06% | 2 nM
CCCCn1cc(-c2cc(F)c(O[C@@H]3CCN(CCC4CCN(C(=O)c5ccc(OC)c(N6CCC(=O)NC6=O)c5)CC4)C[C@H]3F)c(F)c2)c2ccncc2c1=O [Compound E14, 1-(5-(4-(2-((3R,4R)-4-(4-(2-butyl-1-oxo-1,2-dihydro-2,7-naphthyridin-4-yl)-2,6-difluorophenoxy)-3-fluoropiperidin-1-yl)ethyl)piperidine-1-carbonyl)-2-meth-oxyphenyl)dihydro-pyrimidine-2,4(1H,3H)-dione] | 18.10% | 1 nM
CCCCCCn1cc(-c2cc(OC)c(CCN3CCC(OC4CCN(C(=O)c5ccc(F)c(N6CCC(=O)NC6=O)c5)CC4)CC3)c(OC)c2)c2ccncc2c1=O [Compound E15, 1-(2-fluoro-5-(4-((1-(4-(2-hexyl-1-oxo-1,2-dihydro-2,7-naphthyridin-4-yl)-2,6-dimethoxyphenethyl)piperidin-4-yl)oxy)piperidine-1-carbonyl)phenyl)dihydropyrimidine-2,4(1H,3H)-dione] | 19.85% | 17 nM
CCCCn1cc(-c2ccc(O[C@H]3CCN(CC4CCN(C(=O)c5ccc(OC)c(N6CCC(=O)NC6=O)c5)CC4)C[C@@H]3F)c(F)c2)c2ccncc2c1=O [Compound E16, 1-(5-(4-(((3S,4S)-4-(4-(2-butyl-1-oxo-1,2-dihydro-2,7-naphthyridin-4-yl)-2-fluorophenoxy)-3-fluoropiperidin-1-yl)methyl)piperidine-1-carbonyl)-2-meth-oxyphenyl)dihydro-pyrimidine-2,4(1H,3H)-dione] | 16.58% | 1 nM
CCCCn1cc(-c2ccc(O[C@@H]3CCN(CC4CCN(CCn5cccc(CN6CCC(=O)NC6=O)c5=O)CC4)C[C@H]3F)c(F)c2)c2ccncc2c1=O [Compound E17, 1-((1-(2-(4-(((3R,4R)-4-(4-(2-butyl-1-oxo-1,2-dihydro-2,7-naphthyridin-4-yl)-2-fluorophenoxy)-3-fluoropiperidin-1-yl)methyl)piperidin-1-yl)ethyl)-2-oxo-1,2-dihydropyridin-3-yl)methyl)dihydropyrimidine-2,4(1H,3H)-dione] | 18.79% | 5 nM
Cn1cc(-c2cc(F)c(CN3CCC(OC4CCN(CCn5cccc(CN6CCC(=O)NC6=O)c5=O)CC4)CC3)c(F)c2)c2ccncc2c1=O [Compound E18, 1-((1-(2-(4-((1-(2,6-difluoro-4-(2-methyl-1-oxo-1,2-dihydro-2,7-naphthyridin-4-yl)benzyl)piperidin-4-yl)oxy)piperidin-1-yl)ethyl)-2-oxo-1,2-dihydropyridin-3-yl)methyl)dihydro-pyrimidine-2,4(1H,3H)-dione] | 16.66% | 19 nM
CCCCn1cc(-c2ccc(O[C@H]3CCN(CC4CCN(CCOc5ccc(C)c(N6CCC(=O)NC6=O)c5)CC4)C[C@@H]3F)c(OC)c2)c2ccncc2c1=O [Compound E22, 1-(5-(2-(4-(((3S,4S)-4-(4-(2-butyl-1-oxo-1,2-dihydro-2,7-naphthyridin-4-yl)-2-methoxyphenoxy)-3-fluoropiperidin-1-yl)methyl)piperidin-1-yl)ethoxy)-2-methylphenyl)dihydropyrimidine-2,4(1H,3H)-dione] | 39.25% | 34 nM
CCCn1cc(-c2cc(OC)c(CCN3CCC(OC4CCN(CCn5cccc(CN6CCC(=O)NC6=O)c5=O)CC4)CC3)c(OC)c2)c(C)c(C)c1=O [Compound E23, 1-((1-(2-(4-((1-(4-(4,5-dimethyl-6-oxo-1-propyl-1,6-dihydropyridin-3-yl)-2,6-dimethoxyphenethyl)piperidin-4-yl)oxy)piperidin-1-yl)ethyl)-2-oxo-1,2-dihydropyridin-3-yl)methyl)dihydropyrimidine-2,4(1H,3H)-dione] | 14.27% | 11 nM
COc1cc(-c2cn(C)c(=O)c3cnccc23)cc(F)c1CN1CCC(OC2CCN(CCn3cccc(CN4CCC(=O)NC4=O)c3=O)CC2)CC1 [Compound E24, 1-((1-(2-(4-((1-(2-fluoro-6-methoxy-4-(2-methyl-1-oxo-1,2-dihydro-2,7-naphthyridin-4-yl)benzyl)piperidin-4-yl)oxy)piperidin-1-yl)ethyl)-2-oxo-1,2-dihydropyridin-3-yl)methyl)dihydropyrimidine-2,4(1H,3H)-dione] | 17.08% | 42 nM
CCCCn1cc(-c2ccc(O[C@H]3CCN(CC4CCN(C(=O)COc5ccc(C)c(N6CCC(=O)NC6=O)c5)CC4)C[C@@H]3F)c(OC)c2)c2ccncc2c1=O [Compound E25, 1-(5-(2-(4-(((3S,4S)-4-(4-(2-Butyl-1-oxo-1,2-dihydro-2,7-naphthyridin-4-yl)-2-methoxyphenoxy)-3-fluoropiperidin-1-yl)methyl)piperidin-1-yl)-2-oxoethoxy)-2-methylphenyl)dihydropyrimidine-2,4(1H,3H)-dione] | 13.02% | 1 nM
Cn1cc(-c2cc(F)c(CCN3CCC(OC4CCN(CCn5cccc(CN6CCC(=O)NC6=O)c5=O)CC4)CC3)c(F)c2)c2ccncc2c1=O [Compound E27, 1-((1-(2-(4-((1-(2,6-difluoro-4-(2-methyl-1-oxo-1,2-dihydro-2,7-naphthyridin-4-yl)phenethyl)piperidin-4-yl)oxy)piperidin-1-yl)ethyl)-2-oxo-1,2-dihydropyridin-3-yl)methyl)dihydropyrimidine-2,4(1H,3H)-dione] | 22.28% | 33 nM
CCCCn1cc(-c2ccc(O[C@H]3CCN(CC4CCN(CCn5cccc(CN6CCC(=O)NC6=O)c5=O)CC4)C[C@@H]3F)cc2)c2ccncc2c1=O [Compound E28, 1-((1-(2-(4-(((3S,4S)-4-(4-(2-butyl-1-oxo-1,2-dihydro-2,7-naphthyridin-4-yl)phenoxy)-3-fluoropiperidin-1-yl)methyl)piperidin-1-yl)ethyl)-2-oxo-1,2-dihydropyridin-3-yl)methyl)dihydropyrimidine-2,4(1H,3H)-dione] | 23.20% | 21 nM
CCCCn1cc(-c2ccc(O[C@@H]3CCN(CC4CCN(C(=O)c5ccc(OC)c(N6CCC(=O)NC6=O)c5)CC4)C[C@H]3F)c(F)c2)c2ccncc2c1=O [Compound E29, 1-(5-(4-(((3R,4R)-4-(4-(2-butyl-1-oxo-1,2-dihydro-2,7-naphthyridin-4-yl)-2-fluorophenoxy)-3-fluoropiperidin-1-yl)methyl)piperidine-1-carbonyl)-2-methoxyphenyl)dihydropyrimidine-2,4(1H,3H)-dione] | 19.48% | 1 nM
Cn1cc(-c2cc(F)c(CN3CC[C@@H](OC4CCN(CCn5cccc(CN6CCC(=O)NC6=O)c5=O)CC4)[C@H](F)C3)c(F)c2)c2ccncc2c1=O [Compound E30, 1-((1-(2-(4-(((3R,4R)-1-(2,6-difluoro-4-(2-methyl-1-oxo-1,2-dihydro-2,7-naphthyridin-4-yl)benzyl)-3-fluoropiperidin-4-yl)oxy)piperidin-1-yl)ethyl)-2-oxo-1,2-dihydropyridin-3-yl)methyl)dihydro-pyrimidine-2,4(1H,3H)-dione] | 11.19% | 3 nM
CCCCn1cc(-c2ccc(O[C@H]3CCN(CC4CCN(C(=O)c5ccc(OC)c(N6CCC(=O)NC6=O)c5)CC4)C[C@@H]3F)cc2)c2ccncc2c1=O [Compound E31, 1-(5-(4-(((3S,4S)-4-(4-(2-butyl-1-oxo-1,2-dihydro-2,7-naphthyridin-4-yl)phenoxy)-3-fluoropiperidin-1-yl)methyl)piperidine-1-carbonyl)-2-meth-oxyphenyl)dihydro-pyrimidine-2,4(1H,3H)-dione] | 16.43% | 1 nM
